In patent US20250177384A1, “CHROMANOL COMPOUNDS FOR TREATMENT OR PROPHYLAXIS OF AGEING-ASSOCIATED DISORDERS” (Sulfateq B.V., priority 2022, published 2025):

Assays:
[1] = tested on: W1118 flies; assay: Drosophila lifespan with compound added to the food; format: in vivo; details: for survival of flies versus controls: higher doses of 10, 100, 1000 μM in food, from larvae state until death, FIG. 1, FIG. 2; for lifespan of Drosophila: treatment via food
Method: […] flies were bred and housed at 25° C. with a 12 h:12 h light/dark-cycle. Flies were kept in vials containing approximately 5 mL of Bloomington food consisting of sucrose, yeast suspension, agar, […] and fresh yeast. Flies kept as a stock were flipped to fresh vials weekly. Food was stored at 18° C. and warmed at room temperature before use. SUL109 and SUL121 were used to assess the effect of chromanol compounds on the lifespan of the fly stocks. The compounds were independently tested. Either SUL109 or SUL121 were added to the food to a final concentration of 10 μM, 100 μM and 1000 μM. […] flies were anesthetized in small groups using CO2. Subsequently, flies were collected at a density of […] per tube. At day 10 and 11 eclosing adults were anesthetized and housed at a density of 20 males and females per tube. Ten vials were used per study condition (total of 100 males and 100 females). During the lifespan, flies were transferred onto new vials containing fresh food 3 times a week, and the number and sex of dead flies was recorded.

[2] = tested on: accelerated aging animal models; details: chronic treatment; cited from earlier work
[3] = tested on: Ercc1−/− (EC-KO) mice; assay: Endothelium-dependent relaxation of thoracic aorta segments (wire-myograph) after chronic treatment; format: in vivo
Method: (§1) EC-KO mice and corresponding littermates (LM) received either SUL138 treated (30 mg SUL138/kg BW/day) or vehicle treated (0.015% [v/v] ethanol) chow for 8 weeks (14-22 weeks of age).
(§2) Segments of thoracic aorta were isolated and mounted in wire-myograph containing Krebs Henseleit buffer (at 37° C., oxygenated with 95% O2 and 5% CO2) to assess endothelium-dependent (ED) relaxation.
Contraction of the thoracic aorta isolates was induced with 100 mM KCl (final concentration) to evaluate vessel viability.
(§3) A stable synthetic analog of the endoperoxide prostaglandin PGH2, namely U46619, was used for pre-constriction. Thoracic aorta segments were washed and subsequently pre-constricted with U46619 (30-60 nM final concentration; 75-100% of the response to 100 mM KCl), followed by a dose response curve with ED vasodilator acetylcholine (ACh) (10^−9-10^−5 M final concentration).
To evaluate the contribution of different pathways to vasodilator response, segments were incubated with inhibitors for 15 minutes prior to pre-constriction with U46619. L-NAME (10^−4 M) was added to assess nitric oxide (NO) contribution to vasodilator response. L-NAME, apamin (100 nM) and TRAM-34 (10 μM) were added to assess ED hyperpolarization factor (EDHF) contribution to vasodilator response.

[4] = tested on: thoracic aorta segments of EC-KO mice; assay: Acute effect on endothelium-dependent relaxation (pre-incubation of aorta segments); details: pre-incubation 100 μM for 30 minutes
Method: as §2, §3
The acute effect of SUL138 was evaluated by pre-incubating with 100 μM for 30 minutes.

[5] = tested on: Ercc1−/− (EC-KO) mice; assay: Renal function: urine creatinine, urine albumin, plasma creatinine after chronic treatment; format: in vivo
Method: as §1
At the age of 21 weeks, animals were put in metabolic cages. After 10 h of acclimatization, 24 h urine was collected. At the age of 22 weeks, mice were euthanized, urine, blood plasma and tissue were collected.
[…] levels in urine were measured in the samples collected at the age of 21 weeks and at the time euthanasia (22 weeks). QuantiChrom Creatinine Assay Kit (1:2 sample dilution) was used according to manufacturer's instructions.
Albumin levels in urine were measured in the samples collected at the time euthanasia (22 weeks). Mouse albumin ELISA kit ab108792 (1:400 sample dilution) was used according to manufacturer's instructions.
Blood plasma creatinine was measured in the samples collected at the time euthanasia (22 weeks). […]. QuantiChrom Creatinine Assay Kit […] was used according to manufacturer's instructions.

[6] = tested on: Ercc1-deficient mouse models; assay: Persistent DNA damage in Ercc1-deficient mouse models; format: in vivo; details: no method or data given

## Cc1c(C)c2c(c(C)c1O)CCC(C)(C(=O)N1CCNCC1)O2 (stereo not drawn) [SUL121, (6-hydroxy-2,5,7,8-tetramethylchroman-2yl)(piperazin-1-yl)methanone]
[1]
  survival of flies versus controls: better survival than the controls
  lifespan of Drosophila: increased lifespan

## CCCc1nn(C)c2c(=O)[nH]c(-c3cc(S(=O)(=O)N4CCN(C)CC4)ccc3OCC)nc12 [sildenafil]
[2]
  endothelial dependent relaxation / vasomotor (vasodilator) function: not able to improve endothelial dependent relaxation

## Cc1c(C)c2c(c(C)c1O)CC[C@@](C)(C(=O)N1CCN(CCO)CC1)O2 [SUL138, S-(6-hydroxy-2,5,7,8-tetramethylchroman-2-yl)(4-(2-hydroxyethyl)piperazin-1-yl)methanone]
[3]; chronic treatment 30 mg/kg BW/day in chow for 8 weeks, EC-KO mice, compared to LM control levels, FIG. 3
  ED relaxation (acetylcholine response after U46619 pre-constriction): restored ED relaxation
[3]; chronic treatment, EC-KO mice, L-NAME curve, FIG. 6
  pathway contribution to ACh response (EDHF-driven ED relaxation): increased EDHF-driven ED relaxation
[3]; chronic treatment, isolated tissue from Ercc1-deficient mouse models
  vascular function (summary): full preservation of vascular function through EDHF rescue
[4]
  ED relaxation after acute treatment: no effect on ED relaxation
[5]; EC-KO mice, 22 weeks, FIG. 8
  albumin/creatinine ratio in urine: significant improvement of albumin/creatinine ratios
[5]; EC-KO mice, 24 h urine at 21 weeks, FIG. 10
  creatinine filtration (creatinine in 24 h urine): significantly improved
[5]; EC-KO mice, urine at 22 weeks, FIG. 7
  creatinine filtration (urine creatinine): significantly improved creatinine filtration
[5]; Ercc1-deficient mouse models
  renal function (summary): protection of renal function
[6]
  accumulation of persistent DNA damage: attenuation of the accumulation of persistent DNA damage

## CCCCc1nc(Cl)c(CO)n1Cc1ccc(-c2ccccc2-c2nn[nH]n2)cc1 [losartan]
[2]
  endothelial dependent relaxation / vasomotor (vasodilator) function: did not have a beneficial effect

## Cc1c(C)c2c(c(C)c1O)CCC(C)(C(=O)N1CCN(CCO)CC1)O2 (stereo not drawn) [SUL109, (6-hydroxy-2,5,7,8-tetramethylchroman-2-yl)(4-(2-hydroxyethyl)piperazin-1-yl)methanone]
[1]
  survival of flies versus controls: better survival than the controls
  lifespan of Drosophila: increased lifespan
